According to patent US12649734B2, “Bioavailable protein disulfide isomerase inhibitors” (THE CLEVELAND CLINIC FOUNDATION, priority 2020, dated 2026):

Columns and labels:
MM1.S cells = experiment: RNA-seq gene expression profiling; format: cell-based, human; settings: 3 μM, 6 h
Procedure: FIGS. 7A-7H provide graphs showing CCF642-34 is selective for PDIA1 inhibition-induced ER stress response pathway. MM1.S cells were treated with 3 μM of either CCF642 or CCF642-34 for 6 h, and gene expression analysis was performed by RNA sequencing. (A,B) Volcano plots showing CCF642-34 and CCF642 compared to DMSO control. The criteria for differential expression were at least a 2-fold change with p value less than 0.05. The analysis was performed in Originlab, Version 2019b (OriginLab Corporation, Northampton, MA, USA). […] The diagram was generated using a web-based bioinformatics server. (D,E) Hierarchical clusterings with heat map of MM1.S cells treated with vehicle CCF642-34 or CCF642 are shown for response to endoplasmic reticulum stress and unfolded protein response gene sets. (F-H) Heat maps of PERK and ATF6 target genes, Nrf2, and ER-associated degradation (ERAD) pathways are compared between control and inhibitor-treated MM1.S cells. Data analysis was performed using a web-based server and the Broad Institute Morpheus software.
RNA-seq and analysis: MM1.S cells were treated with 3 μM of either CCF642 or CCF642-34 for 6 h, and RNA was purified by using the NucleoSpin RNA kit (Takara Bio USA, Inc.; cat. #740955) according to the manufacturer's instruction. The RNA sequencings were completed as reported previously. Guan et al., Commun. Biol., 3, 1-13 (2020) The RNA-seq data were sub-mitted to the Gene Expression Omnibus (GEO) repository at the National Center for Biotechnology Information (NCBI) archives, with assigned GEO accession number GSE167097.

[1] = Stability in acidic conditions (6 N HCl); format: physicochemical; settings: 3 h
Procedure: To evaluate pharmacological properties of CCF642-34, the stability in acidic conditions (6 N HCl) and upon exposure to human liver microsomes was tested. […] It was therefore concluded that CCF642-34 may be orally bioavailable and effective against MM in vivo.

PDIA1 = PDIA1 (Homo sapiens, UniProt P07237); experiment: PDIA1 activity assay, insulin reduction; format: biochemical; design: His6 (6xHN, pET6xHN-N vector) (N); made in house; host or cells: Escherichia coli BL21 (DE3) NiCo; settings: read-out: inactivation constant, Kinact for PDIA1
Procedure: PDI activity: All PDI activity assays were performed using two different substrates, insulin and di-eosin-diglutathione (di-E-GSSG) as described earlier (Vatolin et al., Ibid) with brief modifications. PDIA1 (1 μM) was incubated for 1 h with varying concentrations of PDIA1 inhibitors 642 or 642-34 (0.1, 03, 1, 5, 10, or 20 μM) in 100 mM sodium phosphate pH 7.0, 2 mM EDTA, and 1% DMSO. Bovine insulin (100 μM) and DTT (1 mM) were added to initiate the reaction. Kinetic readings were taken every minute for 2 h at 650 nm absorbance using a BioTek Synergy plate reader (BioTek Instruments, Inc., Winooski, VT, USA). For highly sensitive fluorescence-based assays, di-E-GSSG as a pseudo substrate was utilized to access the activity of PDIA1. Raturi, A.; Mutus, B., Free. Radic. Biol. Med., 43, 62-70 (2007) Known concentrations of recombinant PDIA1 were mixed with 10 mM GSH and incubated at 37° C. for 30 min in 150 mM K2HPO4/KH2PO4 (pH 7.1) buffer solution. PDI inhibitor was added into the mixture and incubated for an additional 30 min at 37° C. […] Synergy H1 plate reader (BioTek, WI, USA) was used for kinetic analysis using excitation at 518 nm, emission at 545 nm, reads of 0.1 sec/well every minute at 25° C. for 1 h. Baseline fluorescence was determined from di-E-GSSG reactions without PDI and GSH. […]

Sequence of PDIA1 (P07237 18-508): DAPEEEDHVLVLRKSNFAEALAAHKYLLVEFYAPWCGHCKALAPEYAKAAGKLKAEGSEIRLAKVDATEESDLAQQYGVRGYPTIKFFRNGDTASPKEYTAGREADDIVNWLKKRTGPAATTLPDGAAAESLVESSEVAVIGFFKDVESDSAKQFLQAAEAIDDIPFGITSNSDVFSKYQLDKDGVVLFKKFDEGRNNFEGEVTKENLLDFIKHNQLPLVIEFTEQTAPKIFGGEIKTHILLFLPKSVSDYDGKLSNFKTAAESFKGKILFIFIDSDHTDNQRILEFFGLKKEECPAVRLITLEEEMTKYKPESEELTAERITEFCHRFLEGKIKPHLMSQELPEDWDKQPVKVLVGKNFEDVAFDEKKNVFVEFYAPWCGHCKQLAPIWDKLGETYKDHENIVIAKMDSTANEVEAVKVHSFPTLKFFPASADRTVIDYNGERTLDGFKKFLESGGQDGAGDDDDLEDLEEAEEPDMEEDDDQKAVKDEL

## NC(CC1CNc2ccccc21)C(=O)NCCCOc1ccc(N2C(=O)/C(=C/c3ccc([N+](=O)[O-])s3)SC2=S)cc1 (stereo not drawn) [CCF642-34]
MM1.S cells
  TRIB3 upregulation compared to controls: ~20 fold
  number of downregulated genes: 156 genes
  number of upregulated genes: 206 genes
MM1.S cells; 2-fold change, p less than 0.05
  number of genes with changed expression compared to vehicle control: 362 genes
[1]
  compound recovered after exposure to acid: greater than 80%
PDIA1
  KI (inactivation): 0.1 ± 0.0085 µM
